{"source": "the supplement of paper PMC10307832", "test_in_all_cases": "relative viability (nuclei count vs DMSO), 5 days (fraction); higher = more cells survive", "key": {"[1]": {"tested_on": "COR-L23", "how_it_was_run": "(§1)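 For relative viability, nuclei counts in treated wells were divided by those in vehicle wells. Lung cancer cell lines had been pin-tool dosed in 1536-well plates the day after seeding and cultured for 5 days, then fixed and stained in one step (final 0.05% Triton X-100, 1% formaldehyde, 1 ug/ml Hoechst) and imaged at 4×. Doses were one drug alone or a fixed anchor-drug dose plus five library-drug doses (not always all listed) in √10 steps, and values are duplicate-plate medians.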"}, "[2]": {"tested_on": "ChaGo-K-1", "how_it_was_run": "as §1"}, "[3]": {"tested_on": "EPLC-272H", "how_it_was_run": "as §1"}, "[4]": {"tested_on": "H3255", "how_it_was_run": "as §1"}, "[5]": {"tested_on": "HARA", "how_it_was_run": "as §1"}, "[6]": {"tested_on": "HCC-78", "how_it_was_run": "as §1"}, "[7]": {"tested_on": "HOP-62", "how_it_was_run": "as §1"}, "[8]": {"tested_on": "LCLC-97TM1", "how_it_was_run": "as §1"}, "[9]": {"tested_on": "LXF-289", "how_it_was_run": "as §1"}, "[10]": {"tested_on": "NCI-H1437", "how_it_was_run": "as §1"}, "[11]": {"tested_on": "NCI-H1650", "how_it_was_run": "as §1"}, "[12]": {"tested_on": "NCI-H1666", "how_it_was_run": "as §1"}, "[13]": {"tested_on": "NCI-H2085", "how_it_was_run": "as §1"}, "[14]": {"tested_on": "NCI-H2087", "how_it_was_run": "as §1"}, "[15]": {"tested_on": "NCI-H2126", "how_it_was_run": "as §1"}, "[16]": {"tested_on": "NCI-H3122", "how_it_was_run": "as §1"}, "[17]": {"tested_on": "NCI-H441", "how_it_was_run": "as §1"}, "[18]": {"tested_on": "NCI-H596", "how_it_was_run": "as §1"}, "[19]": {"tested_on": "NCI-H661", "how_it_was_run": "as §1"}, "[20]": {"tested_on": "PC-14", "how_it_was_run": "as §1"}}, "data": [{"compound": "Cc1csc(=NC2CCCCC2)n1/N=C/c1ccc(O)c(O)c1O", "note": "[MIM1] + CC(C)C[C@H](NC(=O)[C@H](Cc1ccccc1)NC(=O)c1cnccn1)B(O)O [Bortezomib] (partner 0.002 µM)", "values": [{"measurement": "relative viability", "setting": "[1]; first compound 0.2 µM", "result": 1.02}, {"measurement": "relative viability", "setting": "[1]; first compound 0.6325 µM", "result": 1.04}, {"measurement": "relative viability", "setting": "[1]; first compound 2 µM", "result": 0.969}, {"measurement": "relative viability", "setting": "[1]; first compound 6.325 µM", "result": 0.659}, {"measurement": "relative viability", "setting": "[1]; first compound 20 µM", "result": 0.418}, {"measurement": "relative viability", "setting": "[2]; first compound 0.2 µM", "result": 1.03}, {"measurement": "relative viability", "setting": "[2]; first compound 0.6325 µM", "result": 0.972}, {"measurement": "relative viability", "setting": "[2]; first compound 2 µM", "result": 1.06}, {"measurement": "relative viability", "setting": "[2]; first compound 6.325 µM", "result": 0.729}, {"measurement": "relative viability", "setting": "[2]; first compound 20 µM", "result": 0.29}, {"measurement": "relative viability", "setting": "[3]; first compound 0.2 µM", "result": 0.805}, {"measurement": "relative viability", "setting": "[3]; first compound 0.6325 µM", "result": 0.796}, {"measurement": "relative viability", "setting": "[3]; first compound 2 µM", "result": 0.588}, {"measurement": "relative viability", "setting": "[3]; first compound 6.325 µM", "result": 0.732}, {"measurement": "relative viability", "setting": "[3]; first compound 20 µM", "result": 0.483}, {"measurement": "relative viability", "setting": "[4]; first compound 0.2 µM", "result": 0.861}, {"measurement": "relative viability", "setting": "[4]; first compound 0.6325 µM", "result": 0.634}, {"measurement": "relative viability", "setting": "[4]; first compound 2 µM", "result": 0.666}, {"measurement": "relative viability", "setting": "[4]; first compound 6.325 µM", "result": 0.538}, {"measurement": "relative viability", "setting": "[4]; first compound 20 µM", "result": 0.24}, {"measurement": "relative viability", "setting": "[5]; first compound 0.2 µM", "result": 1.09}, {"measurement": "relative viability", "setting": "[5]; first compound 0.6325 µM", "result": 1.1}, {"measurement": "relative viability", "setting": "[5]; first compound 2 µM", "result": 1.2}, {"measurement": "relative viability", "setting": "[5]; first compound 6.325 µM", "result": 1.08}, {"measurement": "relative viability", "setting": "[5]; first compound 20 µM", "result": 0.127}, {"measurement": "relative viability", "setting": "[6]; first compound 0.2 µM", "result": 0.491}, {"measurement": "relative viability", "setting": "[6]; first compound 0.6325 µM", "result": 0.555}, {"measurement": "relative viability", "setting": "[6]; first compound 2 µM", "result": 0.559}, {"measurement": "relative viability", "setting": "[6]; first compound 6.325 µM", "result": 0.418}, {"measurement": "relative viability", "setting": "[6]; first compound 20 µM", "result": 0.4}, {"measurement": "relative viability", "setting": "[7]; first compound 0.2 µM", "result": 1.04}, {"measurement": "relative viability", "setting": "[7]; first compound 0.6325 µM", "result": 0.611}, {"measurement": "relative viability", "setting": "[7]; first compound 2 µM", "result": 0.746}, {"measurement": "relative viability", "setting": "[7]; first compound 6.325 µM", "result": 0.494}, {"measurement": "relative viability", "setting": "[7]; first compound 20 µM", "result": 0.116}, {"measurement": "relative viability", "setting": "[8]; first compound 0.2 µM", "result": 0.66}, {"measurement": "relative viability", "setting": "[8]; first compound 0.6325 µM", "result": 0.811}, {"measurement": "relative viability", "setting": "[8]; first compound 2 µM", "result": 0.214}, {"measurement": "relative viability", "setting": "[8]; first compound 6.325 µM", "result": 0.346}, {"measurement": "relative viability", "setting": "[8]; first compound 20 µM", "result": 0.0592}, {"measurement": "relative viability", "setting": "[9]; first compound 0.2 µM", "result": 0.986}, {"measurement": "relative viability", "setting": "[9]; first compound 0.6325 µM", "result": 0.791}, {"measurement": "relative viability", "setting": "[9]; first compound 2 µM", "result": 1.03}, {"measurement": "relative viability", "setting": "[9]; first compound 6.325 µM", "result": 0.826}, {"measurement": "relative viability", "setting": "[9]; first compound 20 µM", "result": 0.634}, {"measurement": "relative viability", "setting": "[10]; first compound 0.2 µM", "result": 0.441}, {"measurement": "relative viability", "setting": "[10]; first compound 0.6325 µM", "result": 0.427}, {"measurement": "relative viability", "setting": "[10]; first compound 2 µM", "result": 0.536}, {"measurement": "relative viability", "setting": "[10]; first compound 6.325 µM", "result": 0.221}, {"measurement": "relative viability", "setting": "[10]; first compound 20 µM", "result": 0.112}, {"measurement": "relative viability", "setting": "[11]; first compound 0.2 µM", "result": 0.263}, {"measurement": "relative viability", "setting": "[11]; first compound 0.6325 µM", "result": 0.204}, {"measurement": "relative viability", "setting": "[11]; first compound 2 µM", "result": 0.188}, {"measurement": "relative viability", "setting": "[11]; first compound 6.325 µM", "result": 0.212}, {"measurement": "relative viability", "setting": "[11]; first compound 20 µM", "result": 0.165}, {"measurement": "relative viability", "setting": "[12]; first compound 0.2 µM", "result": 0.863}, {"measurement": "relative viability", "setting": "[12]; first compound 0.6325 µM", "result": 0.916}, {"measurement": "relative viability", "setting": "[12]; first compound 2 µM", "result": 0.722}, {"measurement": "relative viability", "setting": "[12]; first compound 6.325 µM", "result": 0.568}, {"measurement": "relative viability", "setting": "[12]; first compound 20 µM", "result": 0.249}, {"measurement": "relative viability", "setting": "[13]; first compound 0.2 µM", "result": 1.08}, {"measurement": "relative viability", "setting": "[13]; first compound 0.6325 µM", "result": 0.994}, {"measurement": "relative viability", "setting": "[13]; first compound 2 µM", "result": 0.986}, {"measurement": "relative viability", "setting": "[13]; first compound 6.325 µM", "result": 0.952}, {"measurement": "relative viability", "setting": "[13]; first compound 20 µM", "result": 0.989}, {"measurement": "relative viability", "setting": "[14]; first compound 0.2 µM", "result": 0.753}, {"measurement": "relative viability", "setting": "[14]; first compound 0.6325 µM", "result": 0.743}, {"measurement": "relative viability", "setting": "[14]; first compound 2 µM", "result": 0.666}, {"measurement": "relative viability", "setting": "[14]; first compound 6.325 µM", "result": 0.586}, {"measurement": "relative viability", "setting": "[14]; first compound 20 µM", "result": 0.498}, {"measurement": "relative viability", "setting": "[15]; first compound 0.2 µM", "result": 1.13}, {"measurement": "relative viability", "setting": "[15]; first compound 0.6325 µM", "result": 1.1}, {"measurement": "relative viability", "setting": "[15]; first compound 2 µM", "result": 1.13}, {"measurement": "relative viability", "setting": "[15]; first compound 6.325 µM", "result": 1.03}, {"measurement": "relative viability", "setting": "[15]; first compound 20 µM", "result": 1}, {"measurement": "relative viability", "setting": "[16]; first compound 0.2 µM", "result": 1}, {"measurement": "relative viability", "setting": "[16]; first compound 0.6325 µM", "result": 1.06}, {"measurement": "relative viability", "setting": "[16]; first compound 2 µM", "result": 0.999}, {"measurement": "relative viability", "setting": "[16]; first compound 6.325 µM", "result": 0.986}, {"measurement": "relative viability", "setting": "[16]; first compound 20 µM", "result": 0.235}, {"measurement": "relative viability", "setting": "[17]; first compound 0.2 µM", "result": 0.593}, {"measurement": "relative viability", "setting": "[17]; first compound 0.6325 µM", "result": 0.418}, {"measurement": "relative viability", "setting": "[17]; first compound 2 µM", "result": 0.681}, {"measurement": "relative viability", "setting": "[17]; first compound 6.325 µM", "result": 0.521}, {"measurement": "relative viability", "setting": "[17]; first compound 20 µM", "result": 0.171}, {"measurement": "relative viability", "setting": "[18]; first compound 0.6325 µM", "result": 1.16}, {"measurement": "relative viability", "setting": "[18]; first compound 2 µM", "result": 0.988}, {"measurement": "relative viability", "setting": "[18]; first compound 6.325 µM", "result": 0.999}, {"measurement": "relative viability", "setting": "[18]; first compound 20 µM", "result": 0.951}, {"measurement": "relative viability", "setting": "[19]; first compound 0.2 µM", "result": 0.843}, {"measurement": "relative viability", "setting": "[19]; first compound 0.6325 µM", "result": 0.861}, {"measurement": "relative viability", "setting": "[19]; first compound 2 µM", "result": 0.648}, {"measurement": "relative viability", "setting": "[19]; first compound 6.325 µM", "result": 0.453}, {"measurement": "relative viability", "setting": "[19]; first compound 20 µM", "result": 0.221}, {"measurement": "relative viability", "setting": "[20]; first compound 0.2 µM", "result": 0.751}, {"measurement": "relative viability", "setting": "[20]; first compound 0.6325 µM", "result": 0.882}, {"measurement": "relative viability", "setting": "[20]; first compound 2 µM", "result": 0.779}, {"measurement": "relative viability", "setting": "[20]; first compound 6.325 µM", "result": 0.692}, {"measurement": "relative viability", "setting": "[20]; first compound 20 µM", "result": 0.192}]}]}
